Measurements from PMC3000476, “Amino acid derivatives are substrates or non-transported inhibitors of the amino acid transporter PAT2 (slc36a2)” (Biochimica et Biophysica Acta, 2011).
Blank lines part the entries; values can stand above or below the molecule they belong to.

Columns and labels:
[1] = molecular target: T1, PAT2 (Rattus norvegicus, UniProt Q8K415); test: inhibition of L-proline-induced current (TEVC) in PAT2-expressing oocytes; also uptake inhibition IC50 […]; type: cell-based
T1 construct: gene Slc36a2

[2] = molecular target: T1, PAT2
[3] = molecular target: T1, PAT2; test: L-[3H]pipecolic acid uptake and TEVC competition with glycine in PAT2-expressing oocytes; type: cell-based
[4] = molecular target: T1, PAT2; test: inhibition of L-[3H]proline uptake in PAT2-expressing Xenopus oocytes; TEVC; no trans-stimulation of efflux; type: cell-based
[5] = molecular target: T1, PAT2; test: competition with L-[3H]proline uptake in PAT2-expressing Xenopus oocytes; TEVC; type: cell-based
[6] = molecular target: T1, PAT2; test: competition with L-[3H]proline uptake in PAT2-expressing Xenopus oocytes; type: cell-based

T1 sequence (Q8K415 whole entry): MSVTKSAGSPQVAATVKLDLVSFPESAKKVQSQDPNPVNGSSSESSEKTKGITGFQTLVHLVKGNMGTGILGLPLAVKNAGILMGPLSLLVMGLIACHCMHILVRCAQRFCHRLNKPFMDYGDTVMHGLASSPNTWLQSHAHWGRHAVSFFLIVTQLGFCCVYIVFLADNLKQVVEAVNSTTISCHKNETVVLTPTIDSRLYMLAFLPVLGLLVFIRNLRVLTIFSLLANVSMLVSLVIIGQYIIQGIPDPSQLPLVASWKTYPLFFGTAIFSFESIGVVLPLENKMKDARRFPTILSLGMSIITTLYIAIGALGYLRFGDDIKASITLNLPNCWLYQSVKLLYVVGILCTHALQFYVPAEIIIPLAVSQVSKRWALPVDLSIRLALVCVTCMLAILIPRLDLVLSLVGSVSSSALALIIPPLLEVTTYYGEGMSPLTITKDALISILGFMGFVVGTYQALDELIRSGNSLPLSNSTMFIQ

IC50 [1]: 2.7 ± 0.1 mM
SMILES: CC(N)(Cc1c[nH]c2ccccc12)C(=O)O (racemic) [Me-Trp, α-methyl-D,L-tryptophan]

IC50 [6]: 0.7 ± 0.2 mM
SMILES: O=C(O)[C@@H]1C[C@@H](O)CN1 [T4HP, trans-4-hydroxy-L-proline]

The remaining lines, values behind:

SMILES: NCC(=O)O [Gly, glycine]
[3H]glycine uptake, TEVC current and trans-stimulation of L-[3H]proline efflux i [2]: 934 ± 22 pmol oocyte^− 1 (40 min)^− 1

SMILES: O=C(O)[C@@H]1CCCCN1 [L-Pip, L-pipecolic acid]
L-[3H]pipecolic acid uptake [3]: 224 ± 19 pmol oocyte^− 1 (40 min)^− 1

SMILES: N[C@@H](Cc1c[nH]c2ccc(O)cc12)C(=O)O [OH-Trp, 5-hydroxy-L-tryptophan]
IC50 [4]: 1.6 ± 0.4 mM

SMILES: O=C(O)[C@H]1NCC[C@@H]1O [T3HP, trans-3-hydroxy-L-proline]
IC50 [5]: 13.1 ± 4.2 mM
